Measurements published in ChEMBL document CHEMBL1125773, “Analogues of oxybutynin. Synthesis and antimuscarinic and bladder activity of some substituted 7-amino-1-hydroxy-5-heptyn-2-ones and related compounds” (1991).

Columns and labels:
Cavia porcellus [1] = species: Cavia porcellus; test: Antimuscarinic effect determined by comparing ability to inhibit carbachol-induced guinea pig detrusor muscle contractions; format: functional
Cavia porcellus [2] = species: Cavia porcellus; test: Duration of action at which functional detrusor muscle contraction strength was measured using guinea pig model of cystometrogram; design: species or system Muscle tissue
Cavia porcellus [3] = test: Effect on in vivo functional detrusor muscle contraction strength using guinea pig model of cystometrogram; design: species or system Muscle tissue

`CN(C)CC#CCCC(=O)C(O)(c1ccccc1)C1CCC1` (single isomer, unassigned; (+)) gave a Kb (Cavia porcellus [1]) of 0.0062 µM, a Duration (Cavia porcellus [2]) of 88 min and a Potency (Cavia porcellus [3]) of 0.06.

`CCN(C)CC#CCCC(=O)C(O)(c1ccccc1)C1CCCCC1` (stereo not drawn) was tested, and the Kb (Cavia porcellus [1]) was 0.037 µM, the Duration (Cavia porcellus [2]) was 39 min and the Potency (Cavia porcellus [3]) was 0.45.

For `CN(C)CCCCCC(=O)C(O)(c1ccccc1)C1CCCCC1` (stereo not drawn), the Kb (Cavia porcellus [1]) was 0.043 µM, the Duration (Cavia porcellus [2]) was 294 min and the Potency (Cavia porcellus [3]) was 1.27.

`CN(CC#CCCC(=O)C(O)(c1ccccc1)C1CCCCC1)CCc1ccccc1` (stereo not drawn) gave a Kb (Cavia porcellus [1]) of 0.551 µM and a Potency (Cavia porcellus [3]) greater than 10.

`CCN(CC)CC#CCCC(=O)C(O)(c1ccccc1)C1CCCC1` (stereo not drawn) gave a Kb (Cavia porcellus [1]) of 0.021 µM and a Potency (Cavia porcellus [3]) of 3.1.

In the case of `CN(C)CC#CCCC(=O)[C@@](O)(c1ccccc1)C1CCCCC1`, the Kb (Cavia porcellus [1]) is reported as 0.209 µM, the Duration (Cavia porcellus [2]) is reported as 88 min and the Potency (Cavia porcellus [3]) is reported as 3.6.

For `CCCCN(CC#CCCC(=O)C(O)(c1ccccc1)C1CCCCC1)CCCC` (stereo not drawn), the Kb (Cavia porcellus [1]) was greater than 5 µM.

`CN(C)CC#CCCC(=O)C(O)(c1ccccc1)C1CC1` (stereo not drawn) was tested, and the Kb (Cavia porcellus [1]) was 0.035 µM, the Duration (Cavia porcellus [2]) was 89 min and the Potency (Cavia porcellus [3]) was 0.48.

Work on `CN(C)CC#CCCC(=O)C(O)(c1ccccc1)C1CC2CCC1C2` (stereo not drawn) yielded a Kb (Cavia porcellus [1]) of 0.09 µM, a Duration (Cavia porcellus [2]) of 242 min and a Potency (Cavia porcellus [3]) of 0.9.

`CN(C)Cc1ccc(CCC(=O)C(O)(c2ccccc2)C2CCCCC2)cc1` (stereo not drawn) showed a Kb (Cavia porcellus [1]) of 1.9 µM.

`CCNCC#CCCC(=O)C(O)(c1ccccc1)C1CC1` (stereo not drawn) showed a Kb (Cavia porcellus [1]) of 0.224 µM, a Duration (Cavia porcellus [2]) of 103 min and a Potency (Cavia porcellus [3]) of 1.1.

`CN(C)CC#CCCC(=O)C(O)(c1ccccc1)C12CCC(CC1)CC2` (stereo not drawn) was tested, and the Kb (Cavia porcellus [1]) was 0.115 µM and the Potency (Cavia porcellus [3]) was 4.4.

With `CN(C)CC#CCCC(=O)C(O)(c1ccccc1)C12C[C@H]3C[C@@H](C1)C[C@@H](C2)C3` (stereo partly drawn) the Kb (Cavia porcellus [1]) was greater than 5 µM.

Compound `CN(C)CC#CCCC(=O)C(O)(c1ccccc1)c1ccccc1` has a Kb (Cavia porcellus [1]) of 0.0701 µM, a Duration (Cavia porcellus [2]) of 45 min and a Potency (Cavia porcellus [3]) of 0.59.

Compound `CCN(C)CC#CCCC(=O)C(O)(c1ccccc1)C1CC1` (stereo not drawn) has a Kb (Cavia porcellus [1]) of 0.241 µM, a Duration (Cavia porcellus [2]) of 127 min and a Potency (Cavia porcellus [3]) of 1.3.

For `CN(C)CC#CCCC(=O)C(O)(c1ccccc1)C1CCCC1` (stereo not drawn), the Kb (Cavia porcellus [1]) was 0.002 µM, the Duration (Cavia porcellus [2]) was 98 min and the Potency (Cavia porcellus [3]) was 0.33.

`CN(C)CC#CCCC(=O)C(O)(c1ccccc1)C1(C)CC1` (stereo not drawn) showed a Kb (Cavia porcellus [1]) of 0.024 µM, a Duration (Cavia porcellus [2]) of 80 min and a Potency (Cavia porcellus [3]) of 0.28.

Work on `CN(CC#CCCC(=O)C(O)(c1ccccc1)C1CCCCC1)CCO` (stereo not drawn) yielded a Kb (Cavia porcellus [1]) of 0.257 µM.

`CC(C)CC(O)(C(=O)CCC#CCN(C)C)c1ccccc1` (stereo not drawn) was tested, and the Kb (Cavia porcellus [1]) was 0.0305 µM and the Potency (Cavia porcellus [3]) was 4.1.

`CCNCC#CCCC(=O)C(O)(c1ccccc1)C1CC2CCC1C2` (stereo not drawn) gave a Kb (Cavia porcellus [1]) of 0.065 µM, a Duration (Cavia porcellus [2]) of 165 min and a Potency (Cavia porcellus [3]) of 1.1.

With `CN(C)CC#CCCC(=O)C(O)(C1CCCCC1)C1CCCCC1` the Kb (Cavia porcellus [1]) was 0.169 µM and the Potency (Cavia porcellus [3]) was 15.3.

`CC(C)C(O)(C(=O)CCC#CCN(C)C)c1ccccc1` (stereo not drawn) gave a Kb (Cavia porcellus [1]) of 0.0183 µM, a Duration (Cavia porcellus [2]) of 80 min and a Potency (Cavia porcellus [3]) of 0.48.

With `O=C(CCC#CCNCc1ccccc1)C(O)(c1ccccc1)C1CCCCC1` (stereo not drawn) the Kb (Cavia porcellus [1]) was 4.2 µM.

`CNCC#CCCC(=O)C(O)(c1ccccc1)C1CCCCC1` (stereo not drawn) was tested, and the Kb (Cavia porcellus [1]) was 0.0712 µM, the Duration (Cavia porcellus [2]) was 48 min and the Potency (Cavia porcellus [3]) was 0.48.

In the case of `CC(C)N(C)CC#CCCC(=O)C(O)(c1ccccc1)C1CCCCC1` (stereo not drawn), the Kb (Cavia porcellus [1]) is reported as 0.267 µM, the Duration (Cavia porcellus [2]) is reported as 41 min and the Potency (Cavia porcellus [3]) is reported as 4.2.

`CC(C)NCC#CCCC(=O)C(O)(c1ccccc1)C1CCCCC1` (stereo not drawn) was tested, and the Kb (Cavia porcellus [1]) was 0.292 µM, the Duration (Cavia porcellus [2]) was 35 min and the Potency (Cavia porcellus [3]) was 2.1.

Work on `CN(C)CC#CCCC(=O)C(O)(c1ccccc1)C1CCC1` (stereo in doubt; (-)-14b) yielded a Kb (Cavia porcellus [1]) of 0.149 µM, a Duration (Cavia porcellus [2]) of 40 min and a Potency (Cavia porcellus [3]) of 2.5.

Compound `CCN(C)CC#CCCC(=O)C(O)(c1ccccc1)C1CCC1` (stereo not drawn) has a Kb (Cavia porcellus [1]) of 0.0075 µM, a Duration (Cavia porcellus [2]) of 168 min and a Potency (Cavia porcellus [3]) of 0.86.

`CCN(CC#CCCC(=O)C(O)(c1ccccc1)C1CCCCC1)C(C)C` (stereo not drawn) was tested, and the Kb (Cavia porcellus [1]) was 0.217 µM, the Duration (Cavia porcellus [2]) was 23 min and the Potency (Cavia porcellus [3]) was 3.3.

Work on `CN(C)CC#CCCC(=O)C(O)(c1ccccc1)C1CCC1` (stereo in doubt; 14b) yielded a Kb (Cavia porcellus [1]) of 0.0049 µM, a Duration (Cavia porcellus [2]) of 116 min and a Potency (Cavia porcellus [3]) of 0.12.

`CCN(CC)CC#CCCC(=O)C(O)(c1ccccc1)c1ccccc1` was tested, and the Kb (Cavia porcellus [1]) was 0.0707 µM.

Compound `CN(C)CC#CCCC(=O)C(O)(c1ccccc1)C1CCCCC1` (stereo not drawn) has a Kb (Cavia porcellus [1]) of 0.0387 µM, a Duration (Cavia porcellus [2]) of 126 min and a Potency (Cavia porcellus [3]) of 0.48.

For `CCNCC#CCCC(=O)C(O)(c1ccc(F)cc1)C1CCCCC1` (stereo not drawn), the Kb (Cavia porcellus [1]) was 0.504 µM, the Duration (Cavia porcellus [2]) was 116 min and the Potency (Cavia porcellus [3]) was 1.8.

`CCN(CC)CC#CCCC(=O)C(O)(c1ccccc1)C1CC1` (stereo not drawn) was tested, and the Kb (Cavia porcellus [1]) was 0.058 µM, the Duration (Cavia porcellus [2]) was 80 min and the Potency (Cavia porcellus [3]) was 0.98.

Compound `CN(C)CC#CCCC(=O)C(O)(c1ccc(F)cc1)C1CCCCC1` (stereo not drawn) has a Kb (Cavia porcellus [1]) of 0.0677 µM, a Duration (Cavia porcellus [2]) of 104 min and a Potency (Cavia porcellus [3]) of 0.9.

For `CN(C)CC#CCCC(=O)[C@](O)(c1ccccc1)C1CCCCC1`, the Kb (Cavia porcellus [1]) was 0.017 µM, the Duration (Cavia porcellus [2]) was 257 min and the Potency (Cavia porcellus [3]) was 0.19.

In the case of `CCN(CC)CC#CCCC(=O)C(C)(O)c1ccccc1` (stereo not drawn), the Kb (Cavia porcellus [1]) is reported as 5.2 µM.

In the case of `NCC#CCCC(=O)C(O)(c1ccccc1)C1CCCCC1` (stereo not drawn), the Kb (Cavia porcellus [1]) is reported as 2.1 µM.

For `CCN(C)CC#CCCC(=O)C(O)(c1ccccc1)c1ccccc1`, the Kb (Cavia porcellus [1]) was 0.0754 µM, the Duration (Cavia porcellus [2]) was 69 min and the Potency (Cavia porcellus [3]) was 0.9.

`CN(C)CC#CC(CO)C(O)(c1ccccc1)C1CCCCC1` (stereo not drawn) gave a Kb (Cavia porcellus [1]) of 0.0997 µM and a Potency (Cavia porcellus [3]) of 7.38.

In the case of `CCN(CC)CC#CCCC(O)C(O)(c1ccccc1)C1CCCCC1` (stereo not drawn), the Kb (Cavia porcellus [1]) is reported as 1.6 µM, the Duration (Cavia porcellus [2]) is reported as 123 min and the Potency (Cavia porcellus [3]) is reported as 6.3.

`CCNCC#CCCC(=O)C(O)(c1ccccc1)C1CCCCC1` (stereo not drawn) gave a Kb (Cavia porcellus [1]) of 0.232 µM, a Duration (Cavia porcellus [2]) of 85 min and a Potency (Cavia porcellus [3]) of 0.98.

`CCCCN(CC#CCCC(=O)C(O)(c1ccccc1)C1CCCCC1)CCC` (stereo not drawn) was tested, and the Kb (Cavia porcellus [1]) was 0.142 µM, the Duration (Cavia porcellus [2]) was 74 min and the Potency (Cavia porcellus [3]) was 2.6.

`CC(CC#CCN(C)C)C(=O)C(O)(c1ccccc1)C1CCCCC1` (stereo not drawn) showed a Kb (Cavia porcellus [1]) of 0.163 µM, a Duration (Cavia porcellus [2]) of 39 min and a Potency (Cavia porcellus [3]) of 2.1.

Compound `CN(C)CC#CCCC(=O)C(O[Si](C)(C)C)(c1ccccc1)C1CCCCC1` (stereo not drawn) has a Kb (Cavia porcellus [1]) greater than 5 µM.

With `CCN(CC)CC#CCCC(=O)C(O)(c1ccccc1)C1CCCCC1` (stereo not drawn) the Kb (Cavia porcellus [1]) was 0.175 µM, the Duration (Cavia porcellus [2]) was 30 min and the Potency (Cavia porcellus [3]) was 2.8.

`CC(C)N(CC#CCCC(=O)C(O)(c1ccccc1)C1CCCCC1)C(C)C` (stereo not drawn) gave a Kb (Cavia porcellus [1]) of 0.26 µM, a Duration (Cavia porcellus [2]) of 32 min and a Potency (Cavia porcellus [3]) of 5.3.

`CCNCC#CCCC(=O)C(O)(c1ccccc1)c1ccccc1` was tested, and the Kb (Cavia porcellus [1]) was 0.2 µM, the Duration (Cavia porcellus [2]) was 54 min and the Potency (Cavia porcellus [3]) was 1.5.

In the case of `CCNCC#CCCC(=O)C(O)(c1ccccc1)C1CCC1` (stereo not drawn), the Kb (Cavia porcellus [1]) is reported as 0.224 µM, the Duration (Cavia porcellus [2]) is reported as 103 min and the Potency (Cavia porcellus [3]) is reported as 1.1.
